# Source: patent US20230203043A1, “NOVEL IMIDAZOPYRAZINE DERIVATIVES” (Hoffmann-La Roche Inc., priority 2020, published 2023)
# Counter-ions that a name gives are not always drawn.
# System: Acinetobacter baumannii ATCC17961
# Assay: Antimicrobial susceptibility testing: 90% growth inhibitory concentration (IC90) determination in Iso-Sensitest broth, OD600 growth
# Format: cell-based
# Conditions: Acinetobacter baumannii, ATCC17961, 16 h, read-out: A. baumannii ATCC 17961 IC90 (uM), strain ATCC 17961, OD600 growth over 16 h
# Outline: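 Growth monitored at 600 nm every 20 min for 16 h at 35±2 °C, inoculum ~5×10^(5) CFU/ml in Iso-Sensitest medium. Compounds in 10-point twofold series, e.g. 50 to 0.097 μM final; 90% inhibitory concentration taken from log-phase growth.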
row,Structure (SMILES),IC90 [µM]
1,"CCc1cc(Nc2nccn3c(-c4cn(CC(F)F)nc4C(F)(F)F)cnc23)ccc1C(=O)NCCNC(=O)CCN [Example 536, N-(2-(3-aminopropanamido)ethyl)-4-((3-(1-(2,2-difluoroethyl)-3-(trifluoromethyl)-1H-pyrazol-4-yl)imidazo[1,2-a]pyrazin-8-yl)amino)-2-ethylbenzamide formate]",0.145
2,"CCc1cc(Nc2nccn3c(-c4cn(CC(F)F)nc4C(F)(F)F)cnc23)ccc1C(=O)NCCNC(=O)CCCN [Example 537, N-(2-(4-aminobutanamido)ethyl)-4-((3-(1-(2,2-difluoroethyl)-3-(trifluoromethyl)-1H-pyrazol-4-yl)imidazo[1,2-a]pyrazin-8-yl)amino)-2-ethylbenzamide formate]",0.163
3,"CCc1cc(Nc2nccn3c(-c4cn(CC#N)nc4C(F)(F)F)cnc23)ccc1C(=O)NCCNC(=O)CCCN [Example 540, N-(2-(4-aminobutanamido)ethyl)-4-((3-(1-(cyanomethyl)-3-(trifluoromethyl)-1H-pyrazol-4-yl)imidazo[1,2-a]pyrazin-8-yl)amino)-2-ethylbenzamide formate]",0.249
4,"CCc1cc(Nc2nccn3c(-c4cn(CC(F)F)nc4C(F)(F)F)cnc23)ccc1C(=O)NCCCNC(=O)[C@@H]1CC[C@H](N)C1 [Example 543, N-(3-((1R,3S)-3-aminocyclopentane-1-carboxamido)propyl)-4-((3-(1-(2,2-difluoroethyl)-3-(trifluoromethyl)-1H-pyrazol-4-yl)imidazo[1,2-a]pyrazin-8-yl)amino)-2-ethylbenzamide formate]",0.162
5,"CCc1cc(Nc2nccn3c(-c4cn(CC(F)F)nc4C(F)(F)F)cnc23)ccc1C(=O)NCC(=O)N1CCCC(N)C1 (stereo not drawn) [Example 544, N-[2-(3-amino-1-piperidyl)-2-oxo-ethyl]-4-[[3-[1-(2,2-difluoroethyl)-3-(trifluoromethyl)pyrazol-4-yl]imidazo[1,2-a]pyrazin-8-yl]amino]-2-ethyl-benzamide formate]",0.232
6,"CCc1cc(Nc2nccn3c(-c4cn(CC(F)F)nc4C(F)(F)F)cnc23)ccc1C(=O)NCC(=O)N1CCNC(C)C1 (stereo not drawn) [Example 545, 4-[[3-[1-(2,2-difluoroethyl)-3-(trifluoromethyl)pyrazol-4-yl]imidazo[1,2-a]pyrazin-8-yl]amino]-2-ethyl-N-[2-(3-methylpiperazin-1-yl)-2-oxo-ethyl]benzamide formate]",0.306
7,"CCc1cc(Nc2nccn3c(-c4cn(CC(F)F)nc4C(F)(F)F)cnc23)ccc1C(=O)NCC(=O)NCC1(O)CNC1 [Example 546, 4-[[3-[1-(2,2-difluoroethyl)-3-(trifluoromethyl)pyrazol-4-yl]imidazo[1,2-a]pyrazin-8-yl]amino]-2-ethyl-N-[2-[(3-hydroxyazetidin-3-yl)methylamino]-2-oxo-ethyl]benzamide formate]",0.298
8,"CCc1cc(Nc2nccn3c(-c4cn(CC(F)F)nc4C(F)(F)F)cnc23)ccc1C(=O)NCC(=O)NCC1CNC1 [Example 547, N-[2-(azetidin-3-ylmethylamino)-2-oxo-ethyl]-4-[[3-[1-(2,2-difluoroethyl)-3-(trifluoromethyl)pyrazol-4-yl]imidazo[1,2-a]pyrazin-8-yl]amino]-2-ethyl-benzamide formate]",0.298
9,"CCc1cc(Nc2nccn3c(-c4cn(CC(F)F)nc4C(F)(F)F)cnc23)ccc1C(=O)NCC(=O)NCC1(O)CCNCC1 [Example 551, 4-[[3-[1-(2,2-difluoroethyl)-3-(trifluoromethyl)pyrazol-4-yl]imidazo[1,2-a]pyrazin-8-yl]amino]-2-ethyl-N-[2-[(4-hydroxy-4-piperidyl)methylamino]-2-oxo-ethyl]benzamide formate]",0.357
10,"CCc1cc(Nc2nccn3c(-c4c[nH]nc4C(F)(F)F)cnc23)ccc1C(=O)NCCNC(=O)C1CCNCC1 [Example 553, N-(2-(2-ethyl-4-((3-(3-(trifluoromethyl)-1H-pyrazol-4-yl)imidazo[1,2-a]pyrazin-8-yl)amino)benzamido)ethyl) piperidine-4-carboxamide formate]",0.682

# Same assay, conditions: Acinetobacter baumannii, ATCC17961, 16 h, strain ATCC 17961, OD600 growth over 16 h, read-out: A. baumannii ATCC 17961 IC90
row,IC90 [µM],Structure (SMILES)
1,0.261,"CCc1cc(Nc2nccn3c(-c4cn(CC(F)F)nc4C(F)(F)F)cnc23)ccc1C(=O)NCC(=O)N1CC2CC1CN2 (stereo not drawn) [Example 538, N-2-(2,5-diazabicyclo[2.2.1]heptan-2-yl)-2-oxo-ethyl]-4-[[3-[1-(2,2-difluoroethyl)-3-(trifluoromethyl)pyrazol-4-yl]imidazo[1,2-a]pyrazin-8-yl]amino]-2-ethyl-benzamide formate]"
2,0.461,"CCc1cc(Nc2nccn3c(-c4cn(CC(F)F)nc4C(F)F)cnc23)ccc1C(=O)N[C@H]1C[C@@H](N)C1 [Example 539, N-((1s,3s)-3-aminocyclobutyl)-4-((3-(1-(2,2-difluoroethyl)-3-(difluoromethyl)-1H-pyrazol-4-yl)imidazo[1,2-a]pyrazin-8-yl)amino)-2-ethylbenzamide]"
3,0.246,"CCc1cc(Nc2nccn3c(-c4cn(CC(F)F)nc4C(F)(F)F)cnc23)ccc1C(=O)NCCCNC(=O)[C@H]1C[C@@H](N)C1 [Example 541, N-(3-((1s,3s)-3-aminocyclobutane-1-carboxamido)propyl)-4-((3-(1-(2,2-difluoroethyl)-3-(trifluoromethyl)-1H-pyrazol-4-yl)imidazo[1,2-a]pyrazin-8-yl)amino)-2-ethylbenzamide formate]"
4,0.196,"CCc1cc(Nc2nccn3c(-c4cn(CC(F)F)nc4C(F)(F)F)cnc23)ccc1C(=O)NCCCNC(=O)[C@H]1C[C@H](N)C1 [Example 542, N-(3-((1r,3r)-3-aminocyclobutane-1-carboxamido)propyl)-4-((3-(1-(2,2-difluoroethyl)-3-(trifluoromethyl)-1H-pyrazol-4-yl)imidazo[1,2-a]pyrazin-8-yl)amino)-2-ethylbenzamide formate]"
5,0.267,"CCc1cc(Nc2nccn3c(-c4cn(CC(F)F)nc4C(F)(F)F)cnc23)ccc1C(=O)NCC(=O)NCC1CCCN1 (stereo not drawn) [Example 548, 4-[[3-[1-(2,2-difluoroethyl)-3-(trifluoromethyl)pyrazol-4-yl]imidazo[1,2-a]pyrazin-8-yl]amino]-2-ethyl-N-[2-oxo-2-(pyrrolidin-2-ylmethylamino)ethyl] benzamide formate]"
6,0.235,"CCc1cc(Nc2nccn3c(-c4cn(CC(F)F)nc4C(F)(F)F)cnc23)ccc1C(=O)NCC(=O)NCC1CCNC1 (stereo not drawn) [Example 549, 4-[[3-[1-(2,2-difluoroethyl)-3-(trifluoromethyl)pyrazol-4-yl]imidazo[1,2-a]pyrazin-8-yl]amino]-2-ethyl-N-[2-oxo-2-(pyrrolidin-3-ylmethylamino)ethyl] benzamide formate]"
7,0.261,"CCc1cc(Nc2nccn3c(-c4cn(CC(F)F)nc4C(F)(F)F)cnc23)ccc1C(=O)NCC(=O)NCC1CCNCC1 [Example 550, 4-[[3-[1-(2,2-difluoroethyl)-3-(trifluoromethyl)pyrazol-4-yl]imidazo[1,2-a]pyrazin-8-yl]amino]-2-ethyl-N-[2-oxo-2-(4-piperidylmethylamino)ethyl] benzamide formate]"
8,0.489,"CCc1cc(Nc2nccn3c(-c4cn(CC(F)F)nc4C(F)F)cnc23)ccc1C(=O)N[C@H]1C[C@@H](NC(=O)[C@@H]2C[C@@H](O)CN2)C1 [Example 552, (2S,4R)-N-((1s,3R)-3-(4-((3-(1-(2,2-difluoroethyl)-3-(difluoromethyl)-1H-pyrazol-4-yl)imidazo[1,2-a]pyrazin-8-yl)amino)-2-ethylbenzamido)cyclobutyl)-4-hydroxypyrrolidine-2-carboxamide]"
